Source: the NIST ThermoML archive (doi:10.1016/j.jct.2013.05.051)

Conditions: Liquid, Vibrating tube method

CCCCCCCO [heptan-1-ol]
mass density [kg/m3]
Conditions	298.15 K	313.15 K	333.15 K	353.15 K	373.15 K	393.15 K
100 kPa	818.7	808	793.3	778.1	761.9	744.9
1000 kPa	819.3	808.6	794	778.8	762.8	745.8
5000 kPa	821.9	811.4	797.1	782.3	766.6	750.2
10000 kPa	824.9	814.7	800.7	786.3	771.1	755.3
15000 kPa	828	817.9	804.3	790.2	775.5	760.1
20000 kPa	830.8	821	807.7	793.9	779.5	764.6
25000 kPa	833.5	823.8	810.8	797.3	783.4	768.8
30000 kPa	836.3	826.8	813.9	800.7	787.1	772.9
35000 kPa	838.8	829.5	816.9	804	790.6	776.8
40000 kPa	841.3	832.1	819.8	807.1	794	780.4
45000 kPa	843.8	834.7	822.4	810	797.2	783.9
50000 kPa	846.2	837.2	825.2	813	800.3	787.3
55000 kPa	848.5	839.7	827.8	815.8	803.4	790.7
60000 kPa	850.8	842.1	830.3	818.6	806.3	793.8
65000 kPa	853	844.4	832.9	821.2	809.2	796.8
70000 kPa	855.2	846.7	835.3	823.8	811.9	799.8
80000 kPa	859.4	851.1	839.9	828.7	817.2	805.5
90000 kPa	863.5	855.3	844.5	833.5	822.3	810.9
100000 kPa	867.3	859.3	848.7	837.9	827	815.9
110000 kPa	871.1	863.2	852.8	842.3	831.6	820.8
120000 kPa	874.6	867	856.8	846.4	835.9	825.3
130000 kPa	878.1	870.6	860.5	850.3	840.2	829.8
140000 kPa	881.5	874.2	864.3	854.3	844.1	834

CCCCCCC [heptane]
mass density [kg/m3]
Conditions	298.15 K	313.15 K	333.15 K	353.15 K	373.15 K	393.15 K
100 kPa	679.5	666.6	648.9	631.2	–	–
1000 kPa	680.4	667.6	650	632.1	613.3	593.5
5000 kPa	684.2	671.8	655	637.8	620.1	601.7
10000 kPa	688.6	676.7	660.6	644.3	627.7	610.6
15000 kPa	692.8	681.3	665.8	650.3	634.5	618.4
20000 kPa	696.7	685.6	670.6	655.7	640.7	625.4
25000 kPa	700.4	689.5	675.1	660.8	646.3	631.7
30000 kPa	704	693.5	679.4	665.5	651.6	637.5
35000 kPa	707.4	697.1	683.4	670	656.5	643
40000 kPa	710.7	700.5	687.3	674.1	661.1	648
45000 kPa	713.8	703.9	690.9	678.1	665.5	652.8
50000 kPa	716.8	707.2	694.4	682	669.6	657.2
55000 kPa	719.7	710.3	697.7	685.5	673.5	661.5
60000 kPa	722.5	713.3	701	689.1	677.3	665.5
65000 kPa	725.2	716.1	704.1	692.4	680.8	669.3
70000 kPa	727.9	718.9	707.1	695.7	684.3	673.1
80000 kPa	732.9	724.2	712.8	701.7	690.8	680.1
90000 kPa	737.7	729.3	718.2	707.5	696.9	686.5
100000 kPa	742.3	734	723.2	712.8	702.6	692.5
110000 kPa	746.6	738.6	728.1	717.9	708	698.2
120000 kPa	750.7	742.8	732.6	722.7	713	703.4
130000 kPa	754.6	747	737	727.3	717.9	708.5
140000 kPa	758.4	751.1	741.1	731.6	722.3	713.4
